Data from patent US11312712B2, “Azabenzimidazoles and their use as AMPA receptor modulators” (Janssen Pharmaceutica NV, priority 2015, dated 2022).

Molecular target: GluA1o-γ8 (GRIA1o-CACNG8 fusion construct) (Homo sapiens (Human), UniProt P42261+Q8WXS5)
Test: Calcium flux assay (FLIPR), inhibition of TARP γ8 dependent AMPA receptor activity
Format: cell-based
Conditions: GluA1o-γ8 (GRIA1o-CACNG8 fusion) in HEK293 cells, calcium flux after 15 μM glutamate
In short: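 Glutamate (15 μM) was added to a stable HEK293 line carrying the GluA1o–γ8 fusion, which had been preincubated with compound and calcium dye in HEPES buffer, pH 7.4. Normalized FLIPR fluorescence (no compound vs 10 μM CP465022) was fitted with four parameters; pIC50 is the midpoint's negative log.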

Sequence of GluA1o-γ8 (GRIA1o-CACNG8 fusion construct) (P42261 other isoform, or with tags, fused parts or gaps): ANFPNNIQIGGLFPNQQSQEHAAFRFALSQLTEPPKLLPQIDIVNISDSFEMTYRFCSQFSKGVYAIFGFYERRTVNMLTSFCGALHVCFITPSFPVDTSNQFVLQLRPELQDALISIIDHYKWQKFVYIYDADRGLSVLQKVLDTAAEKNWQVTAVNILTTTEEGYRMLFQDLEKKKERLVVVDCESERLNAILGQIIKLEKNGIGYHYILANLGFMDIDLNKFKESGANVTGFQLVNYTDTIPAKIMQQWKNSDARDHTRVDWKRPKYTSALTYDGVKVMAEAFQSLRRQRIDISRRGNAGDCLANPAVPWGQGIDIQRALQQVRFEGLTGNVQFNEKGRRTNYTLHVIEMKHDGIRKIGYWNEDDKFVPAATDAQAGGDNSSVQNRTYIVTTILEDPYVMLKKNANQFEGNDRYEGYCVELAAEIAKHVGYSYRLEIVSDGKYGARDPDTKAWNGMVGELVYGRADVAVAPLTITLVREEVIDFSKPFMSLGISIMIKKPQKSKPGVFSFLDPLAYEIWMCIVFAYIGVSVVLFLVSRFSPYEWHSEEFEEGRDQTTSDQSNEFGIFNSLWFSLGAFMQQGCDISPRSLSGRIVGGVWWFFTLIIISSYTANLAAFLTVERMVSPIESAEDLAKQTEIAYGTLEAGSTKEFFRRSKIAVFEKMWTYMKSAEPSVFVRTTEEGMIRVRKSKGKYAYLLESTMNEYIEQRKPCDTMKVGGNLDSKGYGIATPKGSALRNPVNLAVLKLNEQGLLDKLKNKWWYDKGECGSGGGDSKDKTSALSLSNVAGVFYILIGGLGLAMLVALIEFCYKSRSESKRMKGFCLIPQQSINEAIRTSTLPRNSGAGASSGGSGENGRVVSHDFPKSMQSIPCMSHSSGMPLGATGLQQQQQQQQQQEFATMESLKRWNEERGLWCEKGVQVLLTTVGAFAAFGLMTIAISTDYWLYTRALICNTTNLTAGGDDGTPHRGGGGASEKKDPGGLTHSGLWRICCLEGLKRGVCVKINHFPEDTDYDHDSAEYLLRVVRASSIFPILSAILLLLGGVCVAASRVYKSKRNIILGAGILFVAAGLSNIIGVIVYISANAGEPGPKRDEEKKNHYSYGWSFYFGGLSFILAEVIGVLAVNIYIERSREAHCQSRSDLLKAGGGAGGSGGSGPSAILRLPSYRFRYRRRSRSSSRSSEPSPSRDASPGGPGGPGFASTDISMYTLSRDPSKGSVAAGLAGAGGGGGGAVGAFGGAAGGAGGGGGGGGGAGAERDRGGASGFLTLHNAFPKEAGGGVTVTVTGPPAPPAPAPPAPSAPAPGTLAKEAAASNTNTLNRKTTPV

IC50 | Compound
0.0631 nM | Cc1cc(-n2c3nc(C(F)(F)F)ccc3nc2[C@H]2C[C@H](F)C2)cc2cn[nH]c12 [Example 247, 2-(3-Fluorocyclobutyl)-3-(7-methyl-1H-indazol-5-yl)-5-(trifluoromethyl)imidazo[4,5-b]pyridine]
0.158 nM | FC(F)(F)c1ccc2nc([C@H]3C[C@@H](F)C3)n(-c3cc(Cl)c4[nH]ncc4c3)c2n1 [Example 248, 3-(7-Chloro-1H-indazol-5-yl)-2-(3-fluorocyclobutyl)-5-(trifluoromethyl)imidazo[4,5-b]pyridine]
0.501 nM | Cc1ccc2nc([C@H]3C[C@H](F)C3)n(-c3cc(Cl)c4[nH]ncc4c3)c2n1 [Example 249, 3-(7-Chloro-1H-indazol-5-yl)-2-(3-fluorocyclobutyl)-5-methyl-imidazo[4,5-b]pyridine]
0.0316 nM | FC(F)(F)c1ccc2nc([C@H]3C[C@H](F)C3)n(-c3cc(Cl)c4[nH]ncc4c3)c2n1 [Example 250, 3-(7-Chloro-1H-indazol-5-yl)-2-(3-fluorocyclobutyl)-5-(trifluoromethyl)imidazo[4,5-b]pyridine]
2.51 nM | COC(C)(C)c1nc2ccc(C(F)(F)F)nc2n1-c1cc(C)c2[nH]ncc2c1 [Example 251, 2-(1-Methoxy-1-methyl-ethyl)-3-(7-methyl-1H-indazol-5-yl)-5-(trifluoromethyl)imidazo[4,5-b]pyridine]
0.158 nM | Cc1cc(-n2c(C(C)(F)F)nc3ccc(C(F)(F)F)nc32)cc2cn[nH]c12 [Example 252, 2-(1,1-Difluoroethyl)-3-(7-methyl-1H-indazol-5-yl)-5-(trifluoromethyl)imidazo[4,5-b]pyridine]
0.2 nM | Cc1cc(-n2c(C(C)(C)F)nc3ccc(C(F)(F)F)nc32)cc2cn[nH]c12 [Example 253, 2-(1-Fluoro-1-methyl-ethyl)-3-(7-methyl-1H-indazol-5-yl)-5-(trifluoromethyl)imidazo[4,5-b]pyridine]
0.0631 nM | CC(C)(F)c1nc2ccc(C(F)(F)F)nc2n1-c1cc(Cl)c2[nH]ncc2c1 [Example 254, 3-(7-Chloro-1H-indazol-5-yl)-2-(1-fluoro-1-methyl-ethyl)-5-(trifluoromethyl)imidazo[4,5-b]pyridine]
0.0316 nM | Cc1cc(-n2c(C3CC3)nc3ccc(C(F)(F)F)nc32)cc2cn[nH]c12 [Example 255, 2-Cyclopropyl-3-(7-methyl-1H-indazol-5-yl)-5-(trifluoromethyl)imidazo[4,5-b]pyridine]
0.0631 nM | FC(F)(F)c1ccc2nc(C3(F)CC3)n(-c3cc(Cl)c4[nH]ncc4c3)c2n1 [Example 258, 3-(7-Chloro-1H-indazol-5-yl)-2-(1-fluorocyclopropyl)-5-(trifluoromethyl)imidazo[4,5-b]pyridine]
0.0794 nM | Cc1cc(-n2c(C3(F)CC3)nc3ccc(C(F)(F)F)nc32)cc2cn[nH]c12 [Example 259, 2-(1-Fluorocyclopropyl)-3-(7-methyl-1H-indazol-5-yl)-5-(trifluoromethyl)imidazo[4,5-b]pyridine]
0.158 nM | Cc1cc(-n2c(-c3ccnc(F)c3)nc3ccc(C(F)F)nc32)cc2cn[nH]c12 [Example 263, 5-(Difluoromethyl)-2-(2-fluoro-4-pyridyl)-3-(7-methyl-1H-indazol-5-yl)imidazo[4,5-b]pyridine]
0.1 nM | Fc1cc(-c2nc3ccc(C(F)F)nc3n2-c2cc(Cl)c3[nH]ncc3c2)ccn1 [Example 264, 3-(7-Chloro-1H-indazol-5-yl)-5-(difluoromethyl)-2-(2-fluoro-4-pyridyl)imidazo[4,5-b]pyridine]
126 nM | FC(F)(F)c1ccc2nc(C(F)(F)F)n(-c3cc(Cl)c4cn[nH]c4c3)c2n1 [Example 265, 3-(4-Chloro-1H-indazol-6-yl)-2,5-bis(trifluoromethyl)imidazo[4,5-b]pyridine]
0.1 nM | CC(F)(F)c1nc2ccc(C(F)(F)F)nc2n1-c1ccc2[nH]c(=O)sc2c1 [Example 266, 6-[2-(1,1-Difluoroethyl)-5-(trifluoromethyl)imidazo[4,5-b]pyridin-3-yl]-3H-1,3-benzothiazol-2-one]
0.0158 nM | CC(F)(F)c1nc2ccc(C(F)(F)F)nc2n1-c1cc(Cl)c2[nH]ncc2c1 [Example 267, 3-(7-Chloro-1H-indazol-5-yl)-2-(1,1-difluoroethyl)-5-(trifluoromethyl)imidazo[4,5-b]pyridine]
0.0631 nM | Cc1ccc2nc(C(F)(F)F)n(-c3cc(Cl)c4[nH]ncc4c3)c2n1 [Example 268, 3-(7-Chloro-1H-indazol-5-yl)-5-methyl-2-(trifluoromethyl)imidazo[4,5-b]pyridine]
0.0316 nM | CC(C)c1nc2ccc(C(F)F)nc2n1-c1cc(Cl)c2[nH]ncc2c1 [Example 269, 3-(7-Chloro-1H-indazol-5-yl)-5-(difluoromethyl)-2-isopropyl-imidazo[4,5-b]pyridine]
0.02 nM | FC(F)(F)c1ccc2nc(C(F)(F)F)n(-c3cc(Cl)c4[nH]ncc4c3)c2n1 [Example 270, 3-(7-Chloro-1H-indazol-5-yl)-2,5-bis(trifluoromethyl)imidazo[4,5-b]pyridine]

IC50 | Compound
0.2 nM | O=C1Cc2cc(-n3c(C(F)(F)F)nc4ccc(C(F)(F)F)nc43)cc(Cl)c2N1 [Example 271, 5-[2,5-Bis(trifluoromethyl)imidazo[4,5-b]pyridin-3-yl]-7-chloro-indolin-2-one]
0.2 nM | O=C1Cc2cc(-n3c(C(F)F)nc4ccc(C(F)(F)F)nc43)cc(Cl)c2N1 [Example 272, 7-Chloro-5-[2-(difluoromethyl)-5-(trifluoromethyl)imidazo[4,5-b]pyridin-3-yl]indolin-2-one]
0.0631 nM | Cc1cc(-n2c(C(C)C)nc3ccc(C(F)F)nc32)cc2cn[nH]c12 [Example 273, 5-(Difluoromethyl)-2-isopropyl-3-(7-methyl-1H-indazol-5-yl)imidazo[4,5-b]pyridine]
0.316 nM | Cc1nc2ccc(C(F)F)nc2n1-c1cc(Cl)c2[nH]ncc2c1 [Example 274, 3-(7-Chloro-1H-indazol-5-yl)-5-(difluoromethyl)-2-methyl-imidazo[4,5-b]pyridine]
0.126 nM | Cc1cc(-n2c(C(F)(F)F)nc3ccc(C(F)(F)F)nc32)cc2c1NC(=O)C2 [Example 275, 5-[2,5-Bis(trifluoromethyl)imidazo[4,5-b]pyridin-3-yl]-7-methyl-indolin-2-one]
0.2 nM | Cc1cc(-n2c(C(C)(F)F)nc3ccc(C(F)(F)F)nc32)cc2c1NC(=O)C2 [Example 276, 5-[2-(1,1-Difluoroethyl)-5-(trifluoromethyl)imidazo[4,5-b]pyridin-3-yl]-7-methyl-indolin-2-one]
0.0631 nM | FC(F)c1nc2ccc(C(F)(F)F)nc2n1-c1cc(Cl)c2[nH]ncc2c1 [Example 277, 3-(7-Chloro-1H-indazol-5-yl)-2-(difluoromethyl)-5-(trifluoromethyl)imidazo[4,5-b]pyridine]
3.16 nM | Cc1ccc2nc(C(F)F)n(-c3cc(Cl)c4[nH]ncc4c3)c2n1 [Example 278, 3-(7-Chloro-1H-indazol-5-yl)-2-(difluoromethyl)-5-methyl-imidazo[4,5-b]pyridine]
1.26 nM | Fc1cnc2c(c1)nc(C(F)(F)F)n2-c1cc(Cl)c2[nH]ncc2c1 [Example 279, 3-(7-Chloro-1H-indazol-5-yl)-6-fluoro-2-(trifluoromethyl)imidazo[4,5-b]pyridine]
0.0158 nM | FC(F)c1nc2ccc(C(F)(F)F)nc2n1-c1cc(Br)c2[nH]ncc2c1 [Example 280, 3-(7-Bromo-1H-indazol-5-yl)-2-(difluoromethyl)-5-(trifluoromethyl)imidazo[4,5-b]pyridine]
0.0631 nM | Cc1cc(-n2c(C(F)(F)F)nc3ccc(C(F)(F)F)nc32)cc2sc(=O)[nH]c12 [Example 281, 6-[2,5-Bis(trifluoromethyl)imidazo[4,5-b]pyridin-3-yl]-4-methyl-3H-1,3-benzothiazol-2-one]
0.0316 nM | O=c1[nH]c2c(Cl)cc(-n3c(C(F)(F)F)nc4ccc(C(F)(F)F)nc43)cc2s1 [Example 282, 6-[2,5-Bis(trifluoromethyl)imidazo[4,5-b]pyridin-3-yl]-4-chloro-3H-1,3-benzothiazol-2-one]
2.51 nM | O=c1[nH]c2c(F)cc(-n3c(C(F)(F)F)nc4ccc(C(F)(F)F)nc43)cc2o1 [Example 283, 6-[2,5-Bis(trifluoromethyl)imidazo[4,5-b]pyridin-3-yl]-4-fluoro-3H-1,3-benzoxazol-2-one]
126 nM | COC(=O)c1cc(-n2c(C(F)(F)F)nc3ccc(C(F)(F)F)nc32)cc2cn[nH]c12 [Example 284, Methyl 5-[2,5-bis(trifluoromethyl)imidazo[4,5-b]pyridin-3-yl]-1H-indazole-7-carboxylate]
251 nM | COC(=O)c1cc(-n2c(C(F)F)nc3ccc(C(F)(F)F)nc32)cc2cn[nH]c12 [Example 285, Methyl 5-[2-(difluoromethyl)-5-(trifluoromethyl)imidazo[4,5-b]pyridin-3-yl]-1H-indazole-7-carboxylate]
0.0501 nM | Cc1cc(-n2c(C(F)F)nc3ccc(C(F)(F)F)nc32)cc2cn[nH]c12 [Example 286, 2-(Difluoromethyl)-3-(7-methyl-1H-indazol-5-yl)-5-(trifluoromethyl)imidazo[4,5-b]pyridine]
0.158 nM | Cc1cc(-n2c(C(F)F)nc3ccc(C(F)(F)F)nc32)cc2c1NC(=O)C2 [Example 287, 5-[2-(Difluoromethyl)-5-(trifluoromethyl)imidazo[4,5-b]pyridin-3-yl]-7-methyl-indolin-2-one]
6.31 nM | O=C1Cc2cc(-n3c(C(F)F)nc4ccc(C(F)(F)F)nc43)cc(F)c2N1 [Example 288, 5-[2-(Difluoromethyl)-5-(trifluoromethyl)imidazo[4,5-b]pyridin-3-yl]-7-fluoro-indolin-2-one]
3.98 nM | Cc1cc(-n2c(C(F)(F)F)nc3ccc(C(F)(F)F)nc32)cc2[nH]ncc12 [Example 289, 3-(4-Methyl-1H-indazol-6-yl)-2,5-bis(trifluoromethyl)imidazo[4,5-b]pyridine]
